The values below come from ChEMBL document CHEMBL1155434, “Discovery of a new series of 5-HT1A receptor agonists” (Bioorg Med Chem Lett, 2010).

One test has as its system Thoracic aorta. The test is described as follows: Inhibition of noradrenaline-induced contraction in rat thoracic aorta. Format: functional.
The target in test [1] is T1, Alpha-1A adrenergic receptor (Homo sapiens, UniProt P35348).
T1 sequence (P35348 whole entry): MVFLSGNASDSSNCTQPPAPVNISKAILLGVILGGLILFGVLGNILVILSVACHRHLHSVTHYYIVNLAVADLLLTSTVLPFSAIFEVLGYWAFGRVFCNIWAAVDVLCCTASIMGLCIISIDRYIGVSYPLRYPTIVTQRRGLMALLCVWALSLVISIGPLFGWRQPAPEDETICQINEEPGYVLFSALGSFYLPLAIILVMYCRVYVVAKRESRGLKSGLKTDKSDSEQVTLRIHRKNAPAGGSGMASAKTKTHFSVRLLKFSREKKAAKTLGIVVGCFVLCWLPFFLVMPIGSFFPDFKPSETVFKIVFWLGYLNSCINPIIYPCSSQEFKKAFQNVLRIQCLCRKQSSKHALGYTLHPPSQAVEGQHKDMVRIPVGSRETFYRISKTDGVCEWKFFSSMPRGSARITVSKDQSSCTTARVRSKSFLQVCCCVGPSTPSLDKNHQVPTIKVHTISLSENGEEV
The test is described as follows: Displacement of [3H]prazosin from human alpha1A adrenergic receptor expressed in CHO cells. The test is classed as cell-based. For orientation: Loss of bound radioactivity is the signal in a displacement assay; it reports binding, not function.

Test [2] concerns the target T2, Alpha-1D adrenergic receptor (Homo sapiens, UniProt P25100).
T2 sequence (P25100 whole entry): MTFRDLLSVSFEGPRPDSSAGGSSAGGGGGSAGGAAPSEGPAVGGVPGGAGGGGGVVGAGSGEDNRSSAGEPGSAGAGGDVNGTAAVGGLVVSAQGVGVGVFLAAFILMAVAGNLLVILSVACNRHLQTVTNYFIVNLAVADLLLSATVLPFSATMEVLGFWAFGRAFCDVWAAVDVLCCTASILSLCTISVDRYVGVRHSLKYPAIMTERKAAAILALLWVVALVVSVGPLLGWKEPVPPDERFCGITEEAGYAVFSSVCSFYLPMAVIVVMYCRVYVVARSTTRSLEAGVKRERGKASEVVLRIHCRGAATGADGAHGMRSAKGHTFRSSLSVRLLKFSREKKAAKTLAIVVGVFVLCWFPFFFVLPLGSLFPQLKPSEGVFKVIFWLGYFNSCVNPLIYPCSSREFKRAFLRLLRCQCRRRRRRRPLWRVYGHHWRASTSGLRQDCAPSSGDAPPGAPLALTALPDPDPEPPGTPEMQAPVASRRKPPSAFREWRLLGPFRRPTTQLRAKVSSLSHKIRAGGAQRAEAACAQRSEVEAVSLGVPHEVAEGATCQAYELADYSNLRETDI
The test is described as follows: Displacement of [3H]prazosin from human Alpha-1D adrenergic receptor expressed in CHO cells. Format: cell-based.

A further test relates to Vas deferens. The test is described as follows: Inhibition of noradrenaline-induced contraction in rat prostatic vas deferens. Format: functional.
The next test concerns Spleen. The test is described as follows: Inhibition of noradrenaline-induced contraction in rat spleen. The test is classed as functional.
Test [3] has as its target T3, 5-hydroxytryptamine receptor 1A (Homo sapiens) (UniProt P08908).
T3 sequence (whole entry): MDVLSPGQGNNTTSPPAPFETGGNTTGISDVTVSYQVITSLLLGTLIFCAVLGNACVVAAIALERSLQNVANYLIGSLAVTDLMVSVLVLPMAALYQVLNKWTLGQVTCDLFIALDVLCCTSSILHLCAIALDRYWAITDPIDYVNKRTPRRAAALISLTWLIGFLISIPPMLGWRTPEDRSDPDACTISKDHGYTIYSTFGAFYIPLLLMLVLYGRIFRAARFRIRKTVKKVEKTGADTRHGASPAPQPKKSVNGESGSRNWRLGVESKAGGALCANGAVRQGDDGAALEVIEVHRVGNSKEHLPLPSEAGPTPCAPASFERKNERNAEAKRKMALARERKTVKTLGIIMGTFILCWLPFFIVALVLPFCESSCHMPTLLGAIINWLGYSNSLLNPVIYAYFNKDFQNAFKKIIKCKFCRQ
The test is described as follows: Agonist activity at human recombinant 5HT1A receptor expressed in human HeLa cells by [35S]GTPgammaS binding assay. The test is classed as functional, cell-based.

Another test is filed under the species Homo sapiens. The test is described as follows: Selectivity ratio of pKi for human 5-HT1A receptor to pKi for human alpha1 adrenergic receptor.
The target of test [4] is T4, 5-hydroxytryptamine receptor 1A (Homo sapiens, UniProt P08908).
T4 sequence (P08908 whole entry): T3 sequence (whole entry)
The test is described as follows: Displacement of [3H]8-OH-DPAT from human 5-HT1A receptor expressed in human HeLa cells. The test is classed as cell-based.

Test [5] addresses T3, 5-hydroxytryptamine receptor 1A (Homo sapiens). The test is described as follows: Agonist activity at human recombinant 5HT1A receptor expressed in human HeLa cells by [35S]GTPgammaS binding assay relative to serotonin. The test is classed as functional, cell-based. A general note: GTPγS is a poorly hydrolysed GTP analogue; its binding reports G protein activation.
The target in test [6] is T5, Alpha-1B adrenergic receptor (Homo sapiens, UniProt P35368).
T5 sequence (P35368 whole entry): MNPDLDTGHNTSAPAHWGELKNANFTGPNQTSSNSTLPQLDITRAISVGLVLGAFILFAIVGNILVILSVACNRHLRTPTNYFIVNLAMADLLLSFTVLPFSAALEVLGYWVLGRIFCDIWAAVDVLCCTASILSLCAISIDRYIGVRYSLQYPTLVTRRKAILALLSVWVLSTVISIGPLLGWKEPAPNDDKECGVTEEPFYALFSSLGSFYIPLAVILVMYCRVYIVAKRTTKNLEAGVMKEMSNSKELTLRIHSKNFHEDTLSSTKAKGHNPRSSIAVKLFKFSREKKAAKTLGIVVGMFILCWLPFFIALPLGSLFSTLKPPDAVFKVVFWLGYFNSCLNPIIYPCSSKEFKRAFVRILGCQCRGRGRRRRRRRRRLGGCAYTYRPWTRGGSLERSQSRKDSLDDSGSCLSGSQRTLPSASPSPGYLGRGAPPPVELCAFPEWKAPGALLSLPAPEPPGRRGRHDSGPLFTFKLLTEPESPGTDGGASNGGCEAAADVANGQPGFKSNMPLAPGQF
The test is described as follows: Displacement of [3H]prazosin from human Alpha-1B adrenergic receptor expressed in CHO cells. The test is classed as cell-based.

In general, pKb refers to the Kb on a negative log10 scale, so that one unit is a factor of ten. High values mean a small Kb, low ones a large Kb. The Ki is the dissociation constant of the complex between target and ligand, obtained from inhibition or displacement. Read a high Ki as a looser hold on the target. As a reminder, the Emax is the greatest response seen or fitted, relative to the assay's reference. Take `COc1ccccc1OCCNCC1CSC(c2ccccc2)(c2ccccc2)O1` (racemic): the pKb with Thoracic aorta amounted to 8.68; in the test on Vas deferens, 6.71; with Spleen, 8.44. Moreover, the Ki in test [1] is 20.9 nM; in test [2], 6.61 nM; in test [4], 1.02 nM; in [6], 100 nM. The pD2 in [3] was determined as 8.94. In the test filed under Homo sapiens, the Ratio pKi stood at 6. Also, the Emax in test [5] stood at 76%.
On to `COc1ccccc1OCCNCC1CSC(c2ccccc2)(c2ccccc2)S1` (racemic), for which the pKb in the test with Thoracic aorta is 7.5; with Vas deferens it was 5.8; in the test on Spleen it was 5.87. The Ki was 35.5 nM in [1], 20.4 nM in [2], 0.129 nM in test [4] and 117 nM in test [6]. The pD2 in test [3] is 7.76. In the test filed under Homo sapiens, the Ratio pKi was 158. The Emax in test [5] was 20%.
